Values quoted from earlier work, collected in PMC9377007, “An Unexpected Deuterium-Induced Metabolic Switch in Doxophylline” (ACS Medicinal Chemistry Letters, 2022).

How the values were obtained:
[1] = tested on: PDE-III and IV isozymes; parameters: method as in PMID 1328102; settings: ref [30]; cited from earlier work
[2] = tested on: antibronchospastic and antiasthmatic effects; parameters: method as in PMID 1652045; settings: ref [31]; cited from earlier work

Row | Structure (SMILES) | inhibition of PDE-III and IV isozymes [1] | antibronchospastic and antiasthmatic effects relative to doxophylline [2]
1 | Cn1c(=O)c2c(ncn2CC(=O)O)n(C)c1=O [T-COOH, 7-theophylline acetic acid] | specific inhibition | 
2 | Cn1c(=O)c2c(ncn2CCO)n(C)c1=O [etophylline, 7-hydroxyethyltheophylline] |  | significantly less active than doxophylline
